Reference: publication PMC8310135 (Viruses, 2021)
Counter-ions that a name gives are not always drawn. Like-named read-outs stand apart in the source and are kept apart here.

What was measured:
rLUJV/ZsG = assay: microbe, parasite or virus in culture; type: cell-based, Lujo virus; conditions: for activity at 0.05 µM / activity at 0.5 µM / activity at 5 µM: Huh-7, read-out: Relative ZsG (%) Mean
Huh7 cells = conditions: for CC50: human
in vitro = conditions: human; for CC50: CC50 (50% cell cytotoxicity concentration)
wt LUJV = type: cell-based, Lujo virus
LASV [1] = conditions: read-out: EC50 against LASV; cited from earlier work
LUJV = conditions: cited from earlier work
LASV [2] = conditions: read-out: EC50 for LASV inhibition; cited from earlier work
JUNV [3] = conditions: cited from earlier work
LASV [4] = conditions: read-out: EC50 reported for LASV; cited from earlier work
JUNV [5] = conditions: read-out: EC50 reported for JUNV; cited from earlier work
[6] = Mammarenavirus lujoense, Huh-7, read-out: EC50 (concentration inhibiting ZsG expression by 50%)
[7] = Mammarenavirus lujoense, 500 nM
[8] = Mammarenavirus lujoense, 5000 nM
[9] = read-out: EC50 (concentration inhibiting ZsG expression by 50%)

| Structure (SMILES) | SI (selectivity index, CC50 divided by EC50) (rLUJV/ZsG) | EC50 (rLUJV/ZsG; [6]) [µM] | activity at 0.05 µM (rLUJV/ZsG; Mammarenavirus lujoense, 50 nM) [%] | activity at 0.5 µM (rLUJV/ZsG; [7]) [%] | activity at 5 µM (rLUJV/ZsG; [8]) [%] | EC50 (rLUJV/ZsG; [9]) [µM] | CC50 (Huh7 cells) [µM] | viability at 0.05 µM (in vitro) [%] | viability at 0.5 µM (in vitro) [%] | viability at 5 µM (in vitro) [%] | CC50 (in vitro) [µM] | Relative ZsG (%) Mean (rLUJV/ZsG; 50 nM) [%] | Relative ZsG (%) Mean (rLUJV/ZsG; 500 nM) [%] | Relative ZsG (%) Mean (rLUJV/ZsG; 5000 nM) [%] | Cell Viability (%) Mean (Huh7 cells; 50 nM) [%] | Cell Viability (%) Mean (Huh7 cells; 500 nM) [%] | Cell Viability (%) Mean (Huh7 cells; 5000 nM) [%] | further results |
| --- | --- | --- | --- | --- | --- | --- | --- | --- | --- | --- | --- | --- | --- | --- | --- | --- | --- | --- |
| NCC(=O)Nc1ccc(-n2nc(C(F)(F)F)cc2-c2ccc3c(ccc4ccccc43)c2)cc1 [AR-12] | 4.5 | 1.2 | 74 | 54 | 2 | 1.23 ± 0.444 | 5.52 ± 1.67 | 129 | 115 | 1 | 5.5 ± 1.7 | – | – | – | – | – | – | – |
| CN(C)C/C=C/C(=O)Nc1cc2c(Nc3ccc(F)c(Cl)c3)ncnc2cc1O[C@H]1CCOC1 [Afatinib] | 3.4 | 2.26 ± 0.73 | 76 | 74 | 2 | 2.26 ± 0.734 | 7.64 ± 0.699 | 126 | 136 | 60 | 7.64 ± 0.7 | – | – | – | – | – | – | – |
| Cc1c(-c2ccc(-c3ccccc3F)cc2)nc2ccc(F)cc2c1C(=O)O [Brequinar] | – | 0.11 ± 0.02 | 27 | 2 | 2 | 0.109 ± 0.015 | – | 113 | 85 | 67 | > 12.5 | – | – | – | – | – | – | reduction of wt LUJV viral titers (wt LUJV): approximately 4 logs; viability (in vitro): > 75% |
| C[C@@H](c1nc(-c2ccc(C#N)cc2)cs1)[C@](O)(Cn1cncn1)c1cc(F)ccc1F [Isavucanazole] | 2.1 | 6.1 ± 0.9 | 73 | 75 | 34 | 6.11 ± 0.926 | – | 114 | 121 | 75 | 12.7 ± 3.97 | – | – | – | – | – | – | EC50 (LASV [1]): 1.2 µM; inhibition of LUJV (LUJV): did not inhibit |
| O=C(Nc1ccc([N+](=O)[O-])cc1Cl)c1cc(Cl)ccc1O [Niclosamide] | 3.2 | 0.09 | 30 | 2 | 2 | 0.085 ± 0.029 | 0.272 ± 0.034 | 77 | 2 | 1 | 0.27 | – | – | – | – | – | – | EC50 (LASV [2]): 0.08 µM |
| CC[C@H](CC#N)OC(=O)N[C@@H](C)c1cccc(NC(=O)Nc2ccc(-c3cnco3)c(OC)c2)c1 [AVN-944] | – | 0.2 ± 0.09 | 43 | 4 | 1 | 0.201 ± 0.089 | – | 103 | 97 | 64 | > 12.5 | – | – | – | – | – | – | reduction of wt LUJV viral titers (wt LUJV): approximately 4 logs; reduction of JUNV titers (JUNV [3]): > 90%; viability (in vitro): > 75% |
| CC/C(=C(\c1ccccc1)c1ccc(OCCN(C)C)cc1)c1ccccc1 [Tamoxifene citrate] | 2.1 | 3.59 ± 0.72 | 84 | 78 | 2 | 3.59 ± 0.724 | 7.37 ± 1.04 | 123 | 123 | 85 | 7.37 ± 1.04 | – | – | – | – | – | – | – |
| COC1=CC(c2cc3ccccc3[nH]2)=N/C1=C\c1[nH]c(C)cc1C [Obatoclax] | 4.2 | 0.36 ± 0.1 | 36 | 4 | 10 | 0.355 ± 0.105 | 1.5 ± 0.332 | 130 | 25 | 2 | 1.5 ± 0.33 | – | – | – | – | – | – | – |
| NC(=O)c1nc(F)c[nH]c1=O [Favipiravir (T-705), Favipiravir] | – | 2.95 ± 0.69 | 94 | 95 | 22 | 2.95 ± 0.693 | – | 101 | 104 | 96 | > 50 | – | – | – | – | – | – | reduction of wt LUJV viral titers (wt LUJV): approximately 4 logs; viability (in vitro): > 75% |
| C[C@@]1(F)[C@H](O)[C@@H](CO)O[C@H]1n1ccc(N)nc1=O [PSI-6130] | – | – | – | – | – | – | – | – | – | – | – | 149 | 90 | 114 | 100 | 96 | 99 | – |
| NC(=O)c1ncn([C@@H]2O[C@H](CO)[C@@H](O)[C@H]2O)n1 [Ribavirin] | – | 11.1 ± 1.4 | 94 | 73 | 63 | – | – | 124 | 122 | 133 | > 50 | – | – | – | – | – | – | EC50 (LASV [4]): 2.47 µM; EC50 (JUNV [5]): 18.3 µM |
| C#C[C@@]1(O)[C@H](O)[C@@H](CO)O[C@H]1n1ccc2c(N)ncnc21 [NITD008] | – | – | – | – | – | – | – | – | – | – | – | 122 | 110 | 136 | 99 | 96 | 97 | – |
| COc1c(C)c2c(c(O)c1C/C=C(\C)CCC(=O)O)C(=O)OC2 [Mycophenolic acid (MPA), Mycophenolic acid] | 8.6 | 0.24 ± 0.1 | 72 | 7 | 2 | 0.238 ± 0.097 | 2.04 | 132 | 100 | 48 | 2 ± 0.4 | – | – | – | – | – | – | – |
| Cc1cccc(/C=N/Nc2cc(N3CCOCC3)nc(OCCc3ccccn3)n2)c1 [Apilimod] | – | 1.44 ± 0.6 | 91 | 45 | 24 | 1.44 ± 0.637 | – | 130 | 115 | 80 | 14.4 ± 3.25 | – | – | – | – | – | – | reduction of wt LUJV viral titers (wt LUJV): approximately 4 logs; EC50 (LASV [2]): 0.05 µM; viability (in vitro): > 75% |
| Cc1c(-c2ccc(O)cc2)n(Cc2ccc(OCCN3CCCCCC3)cc2)c2ccc(O)cc12 [Bazedoxifene HCL] | 3.9 | 1.72 ± 0.79 | 110 | 103 | 2 | 1.72 ± 0.481 | 6.68 ± 2.08 | 141 | 147 | 84 | 6.68 ± 2.08 | – | – | – | – | – | – | – |
| [N-]=[N+]=N[C@]1(CO)O[C@@H](n2ccc(N)nc2=O)[C@@H](O)[C@@H]1O [R09187] | – | – | – | – | – | – | – | – | – | – | – | 116 | 122 | 88 | 99 | 98 | 102 | – |
| CC(C)OC(=O)[C@H](C)N[P@@](=O)(OC[C@H]1O[C@@H](n2ccc(=O)[nH]c2=O)[C@](C)(F)[C@@H]1O)Oc1ccccc1 [PSI-7976] | – | – | – | – | – | – | – | – | – | – | – | 96 | 80 | 124 | 94 | 99 | 107 | – |
| O=C(NCCCNc1nc(Nc2cccc(NC(=O)N3CCCC3)c2)ncc1I)c1cccs1 [BX-795] | – | 0.6 ± 0.27 | 80 | 41 | 9 | 0.598 ± 0.274 | 9.91 ± 1.09 | 128 | 105 | 60 | 9.91 ± 1.09 | – | – | – | – | – | – | reduction of wt LUJV viral titers (wt LUJV): approximately 4 logs; viability (in vitro): > 75% |
| CC(C)C(=O)OC[C@H]1O[C@@H](n2ccc(N)nc2=O)[C@](C)(F)[C@@H]1OC(=O)C(C)C [R-7128] | – | – | – | – | – | – | – | – | – | – | – | 133 | 80 | 126 | 100 | 98 | 103 | – |
| Nc1cccc(-c2cc3c(Oc4cccc(O)c4)ncnc3[nH]2)c1 [TWS119] | – | – | – | – | – | – | – | – | – | – | – | 74 | 74 | 13 | 135 | 124 | 36 | – |
| C[C@@]1(F)[C@H](O)[C@@H](CO)O[C@H]1n1ccc(=O)[nH]c1=O [PSI-6206] | – | – | – | – | – | – | – | – | – | – | – | 141 | 87 | 128 | 103 | 96 | 104 | – |
| Nc1ccn([C@@H]2O[C@H](CO)[C@@H](O)[C@H]2F)c(=O)n1 [2′-deoxy-2′-fluorocytidine (2-dFC), 2′-deoxy-2′-fluorocytidine] | – | 0.54 ± 0.21 | 90 | 27 | 2 | 0.533 ± 0.205 | – | 117 | 98 | 105 | > 50 | – | – | – | – | – | – | reduction of wt LUJV viral titers (wt LUJV): approximately 4 logs; viability (in vitro): > 75% |
| O=C(c1ccc(OCCN2CCCCC2)cc1)c1c(-c2ccc(O)cc2)sc2cc(O)ccc12 [Raloxifene (Evista), Raloxifene] | 6.2 | 1.5 ± 0.793 | 87 | 89 | 3 | – | 9.29 ± 1.31 | 139 | 136 | 86 | 9.3 ± 1.3 | – | – | – | – | – | – | – |
